The values that follow come from patent US20250195530A1, “POLQ INHIBITORS” (ASTRAZENECA AB, priority 2022, published 2025).

One test has as its system DLD-1 BRCA2−/− cells. The test can be described thus: Homologous recombination synthetic lethal inhibition of proliferation, DLD-1 BRCA2-/- (Cell Titre Glo 3D). It is filed as cell-based. The following applies: for IC50: Homo sapiens. Summed up:
(§1)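 Proliferation of HR-deficient DLD-1 BRCA2−/− versus isogenic wild-type DLD-1 was measured by ATP luminescence (CellTiter-Glo 3D). Compound exposure lasted 12 or 7 days, respectively, with a fresh dose on day 6. IC50 was the concentration halving maximal signal.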

The test system of a further test is DLD-1 cells. The test can be described thus: Inhibition of proliferation, DLD-1 BRCA2 wt control (Cell Titre Glo 3D). The format is cell-based. The following applies: for IC50: Homo sapiens. Summed up: as §1
The mark [1] stands for this setting: DLD-1, 288 h, DLD-1 BRCA2−/− cells, 12 days, read-out: POLQ PD Prolif Lumin BRCA2 −/− mean pIC50 (converted).
Where [2] appears, read: DLD-1, 168 h, DLD-1 BRCA2 wt cells, 7 days, read-out: POLQ PD Prolif Lumin DLD1 mean pIC50 (converted).
Setting [3] is: DLD-1, proliferation, luminescence, taken as DLD-1 BRCA2-/-, read-out: POLQ PD Prolif Lumin (converted).
The mark [4] stands for this setting: DLD-1, proliferation, luminescence, second Prolif column (c6), taken as DLD-1 BRCA2 wt control, read-out: POLQ PD Prolif Lumin (converted).
Where [5] appears, read: DLD-1, DLD-1 BRCA2 −/− cells, mean, read-out: POLQ PD Prolif Lumin BRCA2 −/− mean pIC50 (converted).
[6] abbreviates: DLD-1, DLD1 BRCA2 wt cells, mean, read-out: POLQ PD Prolif Lumin DLD1 mean PIC50 (converted).

Read-outs that look alike come from different tables or passages of the source. A value given as a limit tells only on which side of the number the result lay.

Consider `C[C@H]1CNCCN1CCOc1ccc(-c2nc3c(OC4(C)CC4)ncnc3n2Cc2ccccc2)c(Cl)c1` [Example R10, (S)-9-benzyl-8-(2-chloro-4-(2-(2-methylpiperazin-1-yl)ethoxy)phenyl)-6-(1-methylcyclopropoxy)-9H-purine], for which the results for the IC50 in the test on DLD-1 BRCA2−/− cells (setting [1]) and in the test with DLD-1 cells (setting [2]) were 0.126 µM and 2 µM, respectively.

Regarding `CC1(Oc2ncnc3c2nc(-c2ccc(OCCN4CCNCC4)cc2Cl)n3Cc2cccc(Cl)n2)CC1` [Example 23, 8-(2-chloro-4-(2-(piperazin-1-yl)ethoxy)phenyl)-9-((6-chloropyridin-2-yl)methyl)-6-(1-methylcyclopropoxy)-9H-purine], the figures for the IC50 with DLD-1 BRCA2−/− cells (setting [1]) and in the test with DLD-1 cells (setting [2]) were 0.631 µM and over 10 µM, respectively.

For `CC1(Oc2ncnc3c2nc(-c2ccc(OCCCC(=O)O)cc2Cl)n3Cc2cccc(Cl)c2)CC1` [Example 44, 4-(3-Chloro-4-(9-(3-chlorobenzyl)-6-(1-methylcyclopropoxy)-9H-purin-8-yl)phenoxy)butanoic acid], the IC50 in the test on DLD-1 BRCA2−/− cells (DLD-1, 288 h, DLD-1 BRCA2−/−, 12 days, Cell Titre Glo 3D, read-out: POLQ PD Prolif Lumin BRCA2 −/− Mean pIC50 (converted)) was 0.158 µM; with DLD-1 cells (DLD-1, 168 h, DLD-1 (BRCA2 wt control), 7 days, Cell Titre Glo 3D, read-out: POLQ PD Prolif Lumin DLD1 Mean pIC50 (converted)), over 10 µM.

In the case of `CC1(Oc2ncnc3c2nc(-c2ccc(OCCN4CCNCC4)cc2Cl)n3Cc2ccccc2)CCC1` [Example 12, 9-Benzyl-8-(2-chloro-4-(2-(piperazin-1-yl)ethoxy)phenyl)-6-(1-methylcyclobutoxy)-9H-purine], the IC50 is 0.126 µM in the test with DLD-1 BRCA2−/− cells (setting [1]) and 2 µM in the test with DLD-1 cells (setting [2]).

Consider `CC(CCOc1ccc(-c2nc3c(OC4(C)CC4)ncnc3n2Cc2c(Cl)cccc2Cl)c(Cl)c1)C(=O)O` (racemic) [Example T277, 4-(3-chloro-4-(9-(2,6-dichlorobenzyl)-6-(1-methylcyclopropoxy)-9H-purin-8-yl)phenoxy)-2-methylbutanoic acid], for which the IC50 with DLD-1 BRCA2−/− cells (DLD-1, DLD-1 BRCA2-/- proliferation, column head only partly shown, read-out: POLQ PD Prolif Lumin (converted)) was 2 µM; in the test on DLD-1 cells (DLD-1, DLD-1 BRCA2 wt control proliferation, column head only partly shown, read-out: POLQ PD Prolif Lumin (converted)) it was over 10 µM.

In the case of `C[C@H](Cn1c(-c2ccc(OCCN3CCNCC3)cc2Cl)nc2c(OC3(C)CC3)ncnc21)c1ccccc1` [Example J9, (S)-8-(2-chloro-4-(2-(piperazin-1-yl)ethoxy)phenyl)-6-(1-methylcyclopropoxy)-9-(2-phenylpropyl)-9H-purine], the IC50 was 2.51 µM with DLD-1 BRCA2−/− cells (setting [1]) and 5.01 µM in the test with DLD-1 cells (setting [2]).

In the case of `Cc1ccnc(Cn2c(-c3ccc(OCCCN4CCCC4)cc3Cl)nc3c(OC4(C)CC4)ncnc32)c1` [Example T590, 8-(2-chloro-4-(3-(pyrrolidin-1-yl)propoxy)phenyl)-6-(1-methylcyclopropoxy)-9-((4-methylpyridin-2-yl)methyl)-9H-purine], the IC50 in the test on DLD-1 BRCA2−/− cells (DLD-1, first proliferation column, DLD-1 BRCA2-/-, read-out: POLQ PD Prolif Lumin (converted)) was 0.251 µM; in the test on DLD-1 cells (DLD-1, second proliferation column, DLD-1 BRCA2 wt control, read-out: POLQ PD Prolif Lumin (converted)) it was over 10 µM.

For the molecule `CC1(Oc2ncnc3c2nc(-c2ccc(OCCN4CC5(CSC5)C4)cc2Cl)n3Cc2ccccc2)CC1` [Example H23, 6-(2-(4-(9-benzyl-6-(1-methylcyclopropoxy)-9H-purin-8-yl)-3-chlorophenoxy)ethyl)-2-thia-6-azaspiro[3.3]heptane], the IC50 in the test with DLD-1 BRCA2−/− cells (setting [1]) was 0.126 µM; with DLD-1 cells (setting [2]) it was 2.51 µM.

As to `Cc1ccnc(Cn2c(-c3ccc(C(=O)N4CC5(CNC5)C4)cc3Cl)nc3c(OC4(C)CC4)ncnc32)c1` [Example T428, (3-chloro-4-(6-(1-methylcyclopropoxy)-9-((4-methylpyridin-2-yl)methyl)-9H-purin-8-yl)phenyl)(2,6-diazaspiro[3.3]heptan-2-yl)methanone], the IC50 with DLD-1 BRCA2−/− cells (setting [3]) and in the test on DLD-1 cells (setting [4]) was over 10 µM in each case.

`CC1(Oc2ncnc3c2nc(-c2ccc(OCCN4CCNCC4)cc2Cl)n3Cc2cccc(C#N)n2)CC1` [Example K9, 6-((8-(2-chloro-4-(2-(piperazin-1-yl)ethoxy)phenyl)-6-(1-methylcyclopropoxy)-9H-purin-9-yl)methyl)picolinonitrile]: the IC50 with DLD-1 BRCA2−/− cells (setting [1]) is 1.58 µM; in the test with DLD-1 cells (setting [2]), over 10 µM.

Take `COc1ccc(Cl)cc1Cn1c(-c2cccc(OCCOCC(=O)O)c2Cl)nc2c(OC3(C)CC3)ncnc21` [Example U52, 2-(2-(2-chloro-3-(9-(5-chloro-2-methoxybenzyl)-6-(1-methylcyclopropoxy)-9H-purin-8-yl)phenoxy)ethoxy)acetic acid]: the IC50 was 0.0501 µM in the test with DLD-1 BRCA2−/− cells (DLD-1, DLD-1 BRCA2 −/−, mean, read-out: POLQ PD Prolif Lumin BRCA2 −/− mean pIC50 (converted)) and over 10 µM with DLD-1 cells (DLD-1, DLD1 BRCA2 wt, mean, read-out: POLQ PD Prolif Lumin DLD1 mean pIC50 (converted)).

In the case of `Cc1cc(OCCN2CCN(C)CC2)cc(C)c1-c1nc2c(OC3(C)CC3)ncnc2n1Cc1ccccc1` [Example H4, 9-benzyl-8-(2,6-dimethyl-4-(2-(4-methylpiperazin-1-yl)ethoxy)phenyl)-6-(1-methylcyclopropoxy)-9H-purine], the IC50 was 0.251 µM in the test with DLD-1 BRCA2−/− cells (setting [1]) and over 10 µM in the test with DLD-1 cells (setting [2]).

With `C[C@@H](CCOc1ccc(-c2nc3c(OC4(C)CC4)ncnc3n2Cc2ccccc2C#N)c(Cl)c1)C(=O)O` [Example T403, (S)-4-(3-chloro-4-(9-(2-cyanobenzyl)-6-(1-methylcyclopropoxy)-9H-purin-8-yl)phenoxy)-2-methylbutanoic acid], the IC50 was 0.398 µM with DLD-1 BRCA2−/− cells (setting [3]) and over 10 µM in the test on DLD-1 cells (setting [4]).

As to `Clc1cccc(Cn2c(-c3ccc(OCCN4CCNCC4)cc3Cl)nc3c(OC4CC4)ncnc32)c1` [Example Q4, 8-(2-chloro-4-(2-(piperazin-1-yl)ethoxy)phenyl)-9-(3-chlorobenzyl)-6-cyclopropoxy-9H-purine], the results for the IC50 with DLD-1 BRCA2−/− cells (setting [1]) and in the test on DLD-1 cells (setting [2]) were 0.2 µM and 2 µM, respectively.

For the molecule `Cc1ccnc(Cn2c(-c3ccc(CC(=O)O)cc3Cl)nc3c(OC4(C)CC4)ncnc32)c1` [Example T49, 2-(3-chloro-4-(6-(1-methylcyclopropoxy)-9-((4-methylpyridin-2-yl)methyl)-9H-purin-8-yl)phenyl)acetic acid], the IC50 with DLD-1 BRCA2−/− cells (setting [5]) and in the test on DLD-1 cells (setting [6]) was over 10 µM in each case.

With `CC1(Oc2ncnc3c2nc(-c2ccc(OCCC(=O)O)cc2Cl)n3Cc2ccccc2)CC1` [Example H11, 3-(4-(9-benzyl-6-(1-methylcyclopropoxy)-9H-purin-8-yl)-3-chlorophenoxy)propanoic acid], the IC50 was 1 µM in the test with DLD-1 BRCA2−/− cells (setting [1]) and over 10 µM with DLD-1 cells (setting [2]).

In the case of `Cc1ccnc(Cn2c(-c3cccc(OCCCN4CC(O)C4)c3Cl)nc3c(OC4(C)CC4)ncnc32)c1` [Example T514, 1-(3-(2-chloro-3-(6-(1-methylcyclopropoxy)-9-((4-methylpyridin-2-yl)methyl)-9H-purin-8-yl)phenoxy)propyl)azetidin-3-ol], the IC50 was 0.398 µM in the test on DLD-1 BRCA2−/− cells (DLD-1, first proliferation column (c5), DLD-1 BRCA2-/-, read-out: POLQ PD Prolif Lumin (converted)) and over 10 µM with DLD-1 cells (DLD-1, second proliferation column (c6), DLD-1 BRCA2 wt control, read-out: POLQ PD Prolif Lumin (converted)).

`CC1(Oc2ncnc3c2nc(-c2ccc(OCCCCCC(=O)O)cc2Cl)n3Cc2cccc(Cl)c2)CC1` [Example T437, 6-(3-chloro-4-(9-(3-chlorobenzyl)-6-(1-methylcyclopropoxy)-9H-purin-8-yl)phenoxy)hexanoic acid]: the IC50 in the test with DLD-1 BRCA2−/− cells (setting [3]) was 0.0631 µM; in the test on DLD-1 cells (setting [4]), over 10 µM.

With `CC1(Oc2ncnc3c2nc(-c2ccc(OCCN4CC5CCC(C4)N5)cc2Cl)n3Cc2ccccc2)CC1` [Example R4, 8-(4-(2-(3,8-diazabicyclo[3.2.1]octan-3-yl)ethoxy)-2-chlorophenyl)-9-benzyl-6-(1-methylcyclopropoxy)-9H-purine], the figures for the IC50 in the test with DLD-1 BRCA2−/− cells (setting [1]) and in the test with DLD-1 cells (setting [2]) were 0.126 µM and 3.16 µM, respectively.

On to `CC1(Oc2ncnc3c2nc(-c2ccc(OCCN4CCN[C@@H](CO)C4)cc2Cl)n3Cc2ccccc2)CC1` [Example R18, (R)-(4-(2-(4-(9-benzyl-6-(1-methylcyclopropoxy)-9H-purin-8-yl)-3-chlorophenoxy)ethyl)piperazin-2-yl)methanol], for which the IC50 in the test with DLD-1 BRCA2−/− cells (setting [1]) is 0.126 µM; in the test on DLD-1 cells (setting [2]), 6.31 µM.

Turning to `COc1ccc(F)cc1Cn1c(-c2cccc(O[C@H]3CC[C@H](C(=O)O)CC3)c2Cl)nc2c(OC3(C)CC3)ncnc21` [Example U69, (1r,4r)-4-(2-chloro-3-(9-(5-fluoro-2-methoxybenzyl)-6-(1-methylcyclopropoxy)-9H-purin-8-yl)phenoxy)cyclohexane-1-carboxylic acid], the “POLQ PD Prolif Lumin BRCA2 −/− mean pIC50” value with DLD-1 BRCA2−/− cells (DLD-1 BRCA2 −/−, mean) was determined as 7.4. In addition, in the test on DLD-1 cells (DLD1 BRCA2 wt, mean), the “POLQ PD Prolif Lumin DLD1 mean pIC50” value is under 5.0.

Take `Cc1ccnc(Cn2c(-c3ccc(OCCN4CCNCC4)cc3Cl)nc3c(OC4(C)CC4)ncnc32)c1` [Example L2, 8-(2-chloro-4-(2-(piperazin-1-yl)ethoxy)phenyl)-6-(1-methylcyclopropoxy)-9-((4-methylpyridin-2-yl)methyl)-9H-purine]: the values for the IC50 with DLD-1 BRCA2−/− cells (setting [1]) and in the test with DLD-1 cells (setting [2]) were 0.398 µM and over 10 µM, respectively.

As to `Cc1ccnc(Cn2c(-c3ccc(C(=O)O)cc3Cl)nc3c(OC4(C)CC4)ncnc32)c1` [Example T13, 3-chloro-4-(6-(1-methylcyclopropoxy)-9-((4-methylpyridin-2-yl)methyl)-9H-purin-8-yl)benzoic acid], the IC50 with DLD-1 BRCA2−/− cells (setting [5]) and in the test on DLD-1 cells (setting [6]) was over 10 µM throughout.
